Where “and” joins values, the source holds several entries; their conditions need not be identical. Identical values can stand only once.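 Assay format: 96-well plates, 48-hour exposure. GI50 marks 50% less growth. TGI: concentration producing complete growth inhibition.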
Tests used:
Assay in all cases: growth of human tumour cells (NCI), 48 h
K-562 leukemia = system: K-562 leukemia
MOLT-4 leukemia = system: MOLT-4 leukemia
NCI-H226 lung = system: NCI-H226 lung
NCI-H522 lung = system: NCI-H522 lung
OVCAR-8 ovarian = system: OVCAR-8 ovarian
HL-60(TB) leukemia = system: HL-60(TB) leukemia
OVCAR-4 ovarian = system: OVCAR-4 ovarian
OVCAR-5 ovarian = system: OVCAR-5 ovarian
MCF7 breast = system: MCF7 breast
SR leukemia = system: SR leukemia

Row | Compound | TGI (K-562 leukemia) | TGI (MOLT-4 leukemia) | TGI (NCI-H226 lung) [µM] | TGI (NCI-H522 lung) | TGI (OVCAR-8 ovarian) | TGI (HL-60(TB) leukemia) | TGI (OVCAR-4 ovarian) | TGI (OVCAR-5 ovarian) [µM] | GI50 (HL-60(TB) leukemia) [µM] | GI50 (MCF7 breast) [µM] | TGI (MCF7 breast) [µM] | GI50 (MOLT-4 leukemia) [µM] | GI50 (NCI-H226 lung) [µM] | GI50 (NCI-H522 lung) | GI50 (OVCAR-5 ovarian) [µM] | GI50 (OVCAR-8 ovarian) [µM] | TGI (SR leukemia) [µM] | GI50 (K-562 leukemia) [µM] | GI50 (OVCAR-4 ovarian) [µM] | GI50 (SR leukemia) [µM]
1 | CC1=CC(/C=C(\C)CCCc2ccoc2)C2(OC(=O)C(C)=C2O)[C@H]2C1CC[C@@H]2C (stereo not given in full) | > 100 µM | 41.3 µM | 54.6 | 31.2 µM | > 100 µM | – | – | – | – | – | – | – | – | – | – | – | – | – | – | –
2 | O=[N+]([O-])c1nccn1CC(O)c1ccc(F)cc1 (stereo not given) | > 100 µM | > 100 µM | > 100 | > 100 µM | > 100 µM | > 100 µM | > 100 µM | > 100 | – | – | – | – | – | – | – | – | – | – | – | –
3 | C=CC1CC12C(=O)C1OC2(C)C2C(=O)c3cc4ccccc4cc3C(=O)C12 (stereo not given) | – | > 100 µM | 79.8 | > 100 µM | 92.3 µM | 65.3 µM | – | > 100 | 24.7 | 16.1 | > 100 | 15.8 | 21.5 | 29.3 µM | 61.2 | 24.2 | – | – | – | –
4 | C=C(C=O)[C@@H]1C2OC(=O)C(=C)[C@@H]2CC(O)[C@@]1(C)CC (stereo not given in full) | 22.6 µM | 9.08 µM | 59.8 | 4.52 µM | 20.4 µM | 5.92 µM | > 30.2 µM | 32 | – | – | – | – | – | – | – | – | 12.3 | – | – | –
5 | CCC[CH2][Sn]([CH2]CCC)([CH2]CCC)[O]C(=O)CC | – | 1 µM | – | 0.299 µM | 0.444 µM | 0.538 µM | 0.26 µM | 0.387 | 0.163 | – | – | 0.247 | – | 0.149 µM | 0.154 | 0.205 | – | 0.237 | 0.125 | –
6 | Cc1c2cccnc2c(C)c2c1c1cc(CO)ccc1n2C | 20.6 µM | 22.5 µM | 1.33 | 6.53 µM | 18.1 µM | – | 10.5 µM | 8.78 | – | 0.501 | 12.7 | 1.64 | 0.264 | 1.98 µM | 0.618 | 1.55 | – | 1.66 | 2.82 | –
7 | CC(O)C(N=Cc1ccccc1[O-])C(=O)[O-].CC(O)C(N=Cc1ccccc1[O-])C(=O)[O-].[Co+2] (stereo not given) | > 100 µM | > 100 µM | > 100 | > 100 µM | > 100 µM | > 100 µM | – | > 100 | 39.1 | – | – | 19 | 28.6 | > 100 µM | > 100 | > 100 | > 100 | 98.4 | – | 39.7
8 | O=S(O)CCCCSSCC(O)C(O)CSSCCCCS(=O)O (stereo not given) | 60.6 µM and > 100 µM | 6.69 µM and 9.58 µM | – | 20 µM and 30.4 µM | 96.5 µM and > 100 µM | 53.9 µM and > 100 µM | 19.9 µM and 23.8 µM | > 100 | – | – | – | – | – | 6.48 µM and 13 µM | – | – | – | – | – | –
9 | CCN(CC)CCOc1ccc(/C=C(\C#N)c2ccc(OCCN(CC)CC)cc2)cc1 | 23.5 µM | 38.2 µM | > 78.4 | 24.9 µM | 42.6 µM | 38.2 µM | > 75.4 µM | > 66 | – | – | – | – | – | – | – | – | 30 | – | – | –
10 | CC(C)(C)OC(=O)NCC(=O)OCc1ccccc1 | > 100 µM | > 100 µM | – | – | > 100 µM | > 100 µM | – | > 100 | – | – | – | – | – | – | – | – | – | – | – | –
11 | CCCCOC(=O)C1C(c2ccc(Cl)cc2)NC(c2ccc(Cl)cc2)C(C(=O)OCCCC)S1(=O)=O (stereo not given) | > 100 µM | > 100 µM | > 100 | > 100 µM | > 100 µM | > 100 µM | > 100 µM | > 100 | – | – | – | – | – | – | – | – | > 100 | – | – | –
12 | COc1ccc(NC(=O)CCc2cc(-c3ccc(O)c(OC)c3)nc(NC#N)n2)cc1 | > 100 µM | > 100 µM | > 100 | – | > 100 µM | > 100 µM | > 100 µM | > 100 | – | – | – | – | – | – | – | – | > 100 | – | – | –
13 | O=[n+]1c2c(n([O-])c3ccccc31)CCCCCCCCCC2 | > 100 µM | > 100 µM | 61.8 | > 100 µM | – | > 100 µM | – | – | – | – | – | – | – | – | – | – | > 100 | – | – | –
14 | COC(=O)c1cc2c3ccccc3n(C(C)=O)c2cn1 | > 100 µM | > 100 µM | > 100 | > 100 µM | > 100 µM | > 100 µM | > 100 µM | > 100 | – | – | – | – | – | – | – | – | > 100 | – | – | –
15 | CCCCCCCCCC/C=C/CC(=O)SCCNC(=O)CCNC(=O)[C@@H](O)C(C)(C)COP(=O)(O)OP(=O)(O)OCC1OC(n2cnc3c(N)ncnc32)C(O)C1OP(=O)(O)O (stereo not given in full) | > 10 µM | > 10 µM | > 10 | – | > 10 µM | > 10 µM | > 10 µM | > 10 | – | – | > 10 | – | – | – | – | – | – | – | – | –
16 | O=C1c2ccccc2C2(Br)C(=O)c3ccccc3C12 (stereo not given) | > 100 µM | > 100 µM | – | > 100 µM | > 100 µM | > 100 µM | > 100 µM | > 100 | – | – | – | – | – | – | – | – | – | – | – | –
17 | COc1ccc(OC)c(NC(=O)C(=O)NNC(=O)c2sc(NNC(C)=O)nc2C)c1 | 43.1 µM | 47.1 µM | > 100 | 44.3 µM | > 100 µM | 90.3 µM | 71.2 µM | > 100 | – | – | – | – | – | – | – | – | > 100 | – | – | –
18 | COC(=O)C12C3C4C1C1C2C3C41C(=O)OC(C)(C)C (stereo not given) | > 100 µM | > 100 µM | > 100 | > 100 µM | > 100 µM | > 100 µM | > 100 µM | > 100 | – | – | – | – | – | – | – | – | 44.1 | – | – | –
19 | O=C(O)CNc1cc(-c2ccccc2)nc(NCC(=O)O)n1 | > 100 µM | > 100 µM | > 100 | > 100 µM | > 100 µM | > 100 µM | > 100 µM | > 100 | – | – | – | – | – | – | – | – | > 100 | – | – | –
20 | O=C1CN=C(C[N+](=O)[O-])c2ccccc21 | > 100 µM | > 100 µM | > 100 | > 100 µM | > 100 µM | > 100 µM | > 100 µM | > 100 | – | – | – | – | – | – | – | – | > 100 | – | – | –
21 | CS(=O)(=O)N/N=C/CN1C(=O)c2ccccc2C1=O | > 100 µM | > 100 µM | > 100 | > 100 µM | > 100 µM | > 100 µM | > 100 µM | > 100 | – | – | – | – | – | – | – | – | > 100 | – | – | –

— PubChem BioAssay (NCI)
